Source: the supplement of paper PMC13207355

How the values were obtained:
Conditions in all cases: exposure time: 72 h
[1] = system: FT3469 (normal neural stem cell line); experiment: phenotypic distance (Euclidean, principal components) from DMSO controls (arbitrary units); higher = stronger morphological change
[2] = system: E21 (patient-derived glioblastoma stem cells of mesenchymal subtype); experiment: as above
[3] = system: E34 (patient-derived glioblastoma stem cells of proneural subtype); experiment: as above
[4] = system: E28 (patient-derived glioblastoma stem cells of classical subtype); experiment: as above
[5] = system: E13 (patient-derived glioblastoma stem cells of classical subtype); experiment: as above
[6] = system: E31 (patient-derived glioblastoma stem cells of proneural subtype); experiment: as above
[7] = system: E57 (patient-derived glioblastoma stem cells of mesenchymal subtype); experiment: as above
[8] = system: FT3469; experiment: surviving fraction (nuclei count normalised to DMSO); higher = more cells surviving (less toxic)
[9] = system: E21; experiment: as above
[10] = system: E34; experiment: as above
[11] = system: E28; experiment: as above
[12] = system: E13; experiment: as above
[13] = system: E31; experiment: as above
[14] = system: E57; experiment: as above
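Wherever phenotypic distance (Euclidean, principal components) from DMSO controls is given: cell Painting imaging in 384-well plates, CellProfiler features reduced to at least 20 principal components, Euclidean distance versus same-plate DMSO vehicle wells (0.1% v/v), median over six images per well.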
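Wherever surviving fraction (nuclei count normalised to DMSO) is given: nuclei counted by high-content imaging of Hoechst-stained cells in laminin-coated 384-well plates, relative to 0.1% DMSO vehicle wells, with staurosporine as cell-death control.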

CN(c1nccc(=O)[nH]1)C1CCN(c2nc3ccccc3n2Cc2ccc(F)cc2)CC1 [Mizolastine]
Conditions	phenotypic distance	surviving fraction
[1], 4.1 nM	0.538	–
[1], 12.3 nM	1.14	–
[1], 37 nM	0.386	–
[1], 111.1 nM	0.797	–
[1], 333.3 nM	0.453	–
[1], 1000 nM	0.544	–
[1], 3000 nM	0.613	–
[2], 4.1 nM	0.704	–
[2], 12.3 nM	0.468	–
[2], 37 nM	0.444	–
[2], 111.1 nM	0.765	–
[2], 333.3 nM	0.434	–
[2], 1000 nM	0.621	–
[2], 3000 nM	0.543	–
[3], 4.1 nM	0.476	–
[3], 12.3 nM	1.2	–
[3], 37 nM	1.86	–
[3], 111.1 nM	0.66	–
[3], 333.3 nM	0.677	–
[3], 1000 nM	0.599	–
[3], 3000 nM	0.698	–
[4], 4.1 nM	0.853	–
[4], 12.3 nM	5.48	–
[4], 37 nM	0.52	–
[4], 111.1 nM	0.84	–
[4], 333.3 nM	0.698	–
[4], 1000 nM	0.693	–
[4], 3000 nM	0.97	–
[5], 4.1 nM	0.868	–
[5], 12.3 nM	0.459	–
[5], 37 nM	0.939	–
[5], 111.1 nM	0.783	–
[5], 333.3 nM	0.597	–
[5], 1000 nM	0.555	–
[5], 3000 nM	0.59	–
[6], 4.1 nM	0.567	–
[6], 12.3 nM	0.802	–
[6], 37 nM	1.44	–
[6], 111.1 nM	0.455	–
[6], 333.3 nM	0.814	–
[6], 1000 nM	0.555	–
[6], 3000 nM	0.652	–
[7], 4.1 nM	0.544	–
[7], 12.3 nM	0.715	–
[7], 37 nM	3.66	–
[7], 111.1 nM	0.766	–
[7], 333.3 nM	0.54	–
[7], 1000 nM	0.624	–
[7], 3000 nM	0.531	–
[8], 4.1 nM	–	1.15
[8], 12.3 nM	–	0.975
[8], 37 nM	–	0.987
[8], 111.1 nM	–	1.06
[8], 333.3 nM	–	1.03
[8], 1000 nM	–	0.94
[8], 3000 nM	–	1.15
[9], 4.1 nM	–	1
[9], 12.3 nM	–	1
[9], 37 nM	–	0.949
[9], 111.1 nM	–	1.03
[9], 333.3 nM	–	1.03
[9], 1000 nM	–	1.01
[9], 3000 nM	–	1.09
[10], 4.1 nM	–	1.16
[10], 12.3 nM	–	0.983
[10], 37 nM	–	1.01
[10], 111.1 nM	–	0.939
[10], 333.3 nM	–	1.04
[10], 1000 nM	–	1.1
[10], 3000 nM	–	0.941
[11], 4.1 nM	–	1.08
[11], 12.3 nM	–	1.1
[11], 37 nM	–	1.1
[11], 111.1 nM	–	1.19
[11], 333.3 nM	–	1.06
[11], 1000 nM	–	1.13
[11], 3000 nM	–	0.972
[12], 4.1 nM	–	0.797
[12], 12.3 nM	–	0.967
[12], 37 nM	–	0.849
[12], 111.1 nM	–	0.869
[12], 333.3 nM	–	0.989
[12], 1000 nM	–	0.896
[12], 3000 nM	–	0.956
[13], 4.1 nM	–	1.01
[13], 12.3 nM	–	1.16
[13], 37 nM	–	0.825
[13], 111.1 nM	–	1.19
[13], 333.3 nM	–	0.944
[13], 1000 nM	–	1.18
[13], 3000 nM	–	0.875
[14], 4.1 nM	–	0.99
[14], 12.3 nM	–	1.02
[14], 37 nM	–	1.06
[14], 111.1 nM	–	0.976
[14], 333.3 nM	–	1.05
[14], 1000 nM	–	1.05
[14], 3000 nM	–	1.06

COC(=O)Nc1nc2cc(C(=O)c3ccc(F)cc3)ccc2[nH]1 [Flubendazol]
Conditions	phenotypic distance	surviving fraction
[1], 4.1 nM	0.499	–
[1], 12.3 nM	0.843	–
[1], 37 nM	0.655	–
[1], 111.1 nM	0.943	–
[1], 333.3 nM	2.08	–
[1], 1000 nM	3.42	–
[1], 3000 nM	3.26	–
[2], 4.1 nM	0.658	–
[2], 12.3 nM	1.03	–
[2], 37 nM	0.833	–
[2], 111.1 nM	1.63	–
[2], 333.3 nM	2.94	–
[2], 1000 nM	7.4	–
[2], 3000 nM	7.27	–
[3], 4.1 nM	0.541	–
[3], 12.3 nM	0.863	–
[3], 37 nM	0.46	–
[3], 111.1 nM	1.21	–
[3], 333.3 nM	1.98	–
[3], 1000 nM	3.35	–
[3], 3000 nM	4.79	–
[4], 4.1 nM	0.523	–
[4], 12.3 nM	0.55	–
[4], 37 nM	0.574	–
[4], 111.1 nM	1.08	–
[4], 333.3 nM	1.98	–
[4], 1000 nM	3.45	–
[4], 3000 nM	3.81	–
[5], 4.1 nM	0.372	–
[5], 12.3 nM	0.737	–
[5], 37 nM	0.86	–
[5], 111.1 nM	1.59	–
[5], 333.3 nM	3.72	–
[5], 1000 nM	6.11	–
[5], 3000 nM	6.68	–
[6], 4.1 nM	0.507	–
[6], 12.3 nM	0.548	–
[6], 37 nM	0.79	–
[6], 111.1 nM	1.36	–
[6], 333.3 nM	3.16	–
[6], 1000 nM	5.22	–
[6], 3000 nM	7.77	–
[7], 4.1 nM	0.67	–
[7], 12.3 nM	0.423	–
[7], 37 nM	0.428	–
[7], 111.1 nM	1.31	–
[7], 333.3 nM	2.68	–
[7], 1000 nM	5.07	–
[7], 3000 nM	4.95	–
[8], 4.1 nM	–	1.16
[8], 12.3 nM	–	0.827
[8], 37 nM	–	0.997
[8], 111.1 nM	–	0.747
[8], 333.3 nM	–	0.644
[8], 1000 nM	–	0.524
[8], 3000 nM	–	0.564
[9], 4.1 nM	–	1.09
[9], 12.3 nM	–	0.929
[9], 37 nM	–	0.954
[9], 111.1 nM	–	0.885
[9], 333.3 nM	–	0.777
[9], 1000 nM	–	0.161
[9], 3000 nM	–	0.137
[10], 4.1 nM	–	1.14
[10], 12.3 nM	–	0.942
[10], 37 nM	–	0.985
[10], 111.1 nM	–	0.904
[10], 333.3 nM	–	0.661
[10], 1000 nM	–	0.473
[10], 3000 nM	–	0.324
[11], 4.1 nM	–	1.07
[11], 12.3 nM	–	1.09
[11], 37 nM	–	1.02
[11], 111.1 nM	–	1.02
[11], 333.3 nM	–	0.67
[11], 1000 nM	–	0.361
[11], 3000 nM	–	0.234
[12], 4.1 nM	–	0.992
[12], 12.3 nM	–	1.12
[12], 37 nM	–	1.11
[12], 111.1 nM	–	0.943
[12], 333.3 nM	–	0.471
[12], 1000 nM	–	0.261
[12], 3000 nM	–	0.234
[13], 4.1 nM	–	0.887
[13], 12.3 nM	–	0.95
[13], 37 nM	–	0.807
[13], 111.1 nM	–	0.615
[13], 333.3 nM	–	0.329
[13], 1000 nM	–	0.118
[13], 3000 nM	–	0.0708
[14], 4.1 nM	–	0.998
[14], 12.3 nM	–	0.941
[14], 37 nM	–	1.06
[14], 111.1 nM	–	0.996
[14], 333.3 nM	–	0.739
[14], 1000 nM	–	0.134
[14], 3000 nM	–	0.0682

C[C@H]1Oc2cc(cnc2N)-c2c(nn(C)c2C#N)CN(C)C(=O)c2ccc(F)cc21 [Lorlatinib]
Conditions	phenotypic distance	surviving fraction
[1], 4.1 nM	1.48	–
[1], 12.3 nM	0.861	–
[1], 37 nM	1.31	–
[1], 111.1 nM	0.981	–
[1], 333.3 nM	1.15	–
[1], 1000 nM	0.901	–
[1], 3000 nM	1.54	–
[2], 4.1 nM	0.926	–
[2], 12.3 nM	2.32	–
[2], 37 nM	1.09	–
[2], 111.1 nM	0.89	–
[2], 333.3 nM	1.37	–
[2], 1000 nM	1.41	–
[2], 3000 nM	1.96	–
[3], 4.1 nM	0.575	–
[3], 12.3 nM	0.814	–
[3], 37 nM	1.28	–
[3], 111.1 nM	0.761	–
[3], 333.3 nM	1.2	–
[3], 1000 nM	0.726	–
[3], 3000 nM	1.84	–
[4], 4.1 nM	1.06	–
[4], 12.3 nM	0.784	–
[4], 37 nM	1.27	–
[4], 111.1 nM	1.47	–
[4], 333.3 nM	1.29	–
[4], 1000 nM	1.31	–
[4], 3000 nM	1.79	–
[5], 4.1 nM	0.964	–
[5], 12.3 nM	0.749	–
[5], 37 nM	1.19	–
[5], 111.1 nM	0.958	–
[5], 333.3 nM	0.954	–
[5], 1000 nM	1.09	–
[5], 3000 nM	0.943	–
[6], 4.1 nM	0.873	–
[6], 12.3 nM	1.38	–
[6], 37 nM	2.47	–
[6], 111.1 nM	0.874	–
[6], 333.3 nM	1.08	–
[6], 1000 nM	1.32	–
[6], 3000 nM	1.4	–
[7], 4.1 nM	2.11	–
[7], 12.3 nM	3.34	–
[7], 37 nM	2.79	–
[7], 111.1 nM	3.21	–
[7], 333.3 nM	2.46	–
[7], 1000 nM	2.74	–
[7], 3000 nM	2.66	–
[8], 4.1 nM	–	0.89
[8], 12.3 nM	–	1.1
[8], 37 nM	–	0.999
[8], 111.1 nM	–	0.981
[8], 333.3 nM	–	1.03
[8], 1000 nM	–	1.06
[8], 3000 nM	–	0.834
[9], 4.1 nM	–	0.887
[9], 12.3 nM	–	0.918
[9], 37 nM	–	0.876
[9], 111.1 nM	–	0.918
[9], 333.3 nM	–	0.862
[9], 1000 nM	–	0.924
[9], 3000 nM	–	0.768
[10], 4.1 nM	–	1.02
[10], 12.3 nM	–	0.994
[10], 37 nM	–	0.939
[10], 111.1 nM	–	1.09
[10], 333.3 nM	–	0.999
[10], 1000 nM	–	1.1
[10], 3000 nM	–	0.792
[11], 4.1 nM	–	1.11
[11], 12.3 nM	–	1.02
[11], 37 nM	–	1.05
[11], 111.1 nM	–	0.843
[11], 333.3 nM	–	0.913
[11], 1000 nM	–	1.07
[11], 3000 nM	–	0.911
[12], 4.1 nM	–	1.03
[12], 12.3 nM	–	0.961
[12], 37 nM	–	1.08
[12], 111.1 nM	–	1.08
[12], 333.3 nM	–	1.11
[12], 1000 nM	–	1
[12], 3000 nM	–	1.01
[13], 4.1 nM	–	1.23
[13], 12.3 nM	–	0.867
[13], 37 nM	–	1.06
[13], 111.1 nM	–	0.986
[13], 333.3 nM	–	1.17
[13], 1000 nM	–	1.08
[13], 3000 nM	–	1.01
[14], 4.1 nM	–	0.87
[14], 12.3 nM	–	0.808
[14], 37 nM	–	0.891
[14], 111.1 nM	–	0.816
[14], 333.3 nM	–	0.815
[14], 1000 nM	–	0.794
[14], 3000 nM	–	0.757
